In publication PMC10976160, “Comparative Pharmacokinetics Research of 13 Bioactive Components of Jieyu Pills in Control and Attention Deficit Hyperactivity Disorder Model Rats Based on UPLC-Orbitrap Fusion MS” (Molecules, 2024):
Where two headings read alike, the source gives them in different places. Each block holds one compound with its values, some of them ahead of it.

Tests used:
[1] = Pharmacokinetics in ADHD model rats after gavage of JYPs; format: in vivo, SHR rats (ADHD model); conditions: for peak time / half-life: ADHD model rats, oral JYPs; for removed within 12 h: ADHD rats (as printed, in the control-group section); for half-life: male, SHR, plasma
Protocol: Based on the established analytical method for plasma samples, a pharmacokinetic study was conducted on 13 constituents in the plasma of ADHD model rats after gavage of JYPs (Figure 3). The linearity of ln(AUC0-t)–ln(dose) and ln(Cmax)–ln(dose) was analyzed in the same way.
(§1) For the control experiment, healthy male Sprague Dawley (SD) rats of SPF grade ([…] ± 20 g) were purchased from Sipeifu (Beijing) Biotechnology Co., Ltd. (Beijing, China), Animal Quality Certificate No. 110324220102348616. For the ADHD model rats, healthy male SHR rats of SPF grade, weighing 220 ± 20 g, were purchased from SBF (Beijing) Biotechnology Co., Ltd. (Beijing, China), License No. SCXK (Yu) 2019-0010. The animals were accommodated in the Animal Center of Henan University of Traditional Chinese Medicine, which successfully underwent an ethical audit with ethics number DWLL202208003. The animals were bred under controlled conditions at a temperature of 24 °C and a relative humidity of 50 ± 2%. Before the experiment, the animals abstained from eating for 12 h and had unrestricted access to water. The feeding and experimental research conducted on the experimental animals adhered to the laws outlined in the Management of Experimental Animals in Henan Province.
(§2) JYPs were ground into a fine powder and sieved through 60-mesh sieves; then, 20 g of fine JYP powder was taken, having been weighed precisely. A precise volume of 50 mL of pure water was added and mixed well to prepare a 0.4 g/mL suspension solution of JYPs, which was then stored in the refrigerator at 4 °C.
(§3) This study involved 24 healthy male SD rats with a body mass of 220 ± 20 g and 24 healthy male ADHD rats with a body mass of 220 ± 20 g. Subjects abstained from food for a duration of 12 h before the experiment and consumed water without restriction. Both kinds of rats were randomly divided into four groups: a blank group, given an equal dose of water intragastrically, and 3 different administration groups: rats given the equivalent human dose of JYPs by gavage in doses of 1.080 g/kg/d, 2.160 g/kg/d, and 4.320 g/kg/d. Tail vein blood was collected at 0.083, 0.25, 0.5, 0.75, 1, 1.5, 2, 3, 4, 6, 8, 12, 18, and 24 h after dosing. About 0.5 mL of blood was collected in sodium heparin centrifugal tubes, then centrifuged at 4 °C for 10 min at a speed of 3500r/min. We took the upper layer and placed it at −80 °C for preservation.
(§4) We took 200 μL of plasma, added 600 μL of methanol solution and 50 μL of internal standard (100 ng/mL), and subjected it to shaking for 5 min, followed by centrifugation at 4 °C at 12,000 r/min for 10 min. The supernatant was collected and allowed to dry, then reconstituted with 50 μL of 50% methanol and centrifuged at 4 °C at 14,000 r/min for a further 10 min. The supernatant after this process was taken as the test solution. A volume of 5 μL was used for UPLC-MS analysis. The drug concentration in plasma was calculated with the aid of the internal standard.
Chromatographic conditions: Hypersil GOLD (100 × 2.1 mm, 1.9 μm) column; column temperature 35 °C; mobile phase acetonitrile (A)/0.1% formic acid aqueous solution (B); gradient elution; gradient elution program: 0–0.5 min (95% B–95% B), 0.5–8 min (95% B–50% B), 8–14 min (50% B–20% B), 14–20 min (20% B–5% B), 20–22 min (5% B–5% B), 22–25 min (95% B–95% B); flow rate 0.2 mL/min; injection volume 5 μL. The ion source was electrospray ionization (ESI), with positive and negative ion mode spray voltages of 3.50 and 3.0 kV, an ion transfer tube temperature of 300 °C, nitrogen as the carrier gas, a sheath gas pressure of 35 arb, an auxiliary gas pressure of 8 arb, and an auxiliary heater temperature of 275 °C.

[2] = Pharmacokinetics in control rats after gavage of JYPs; format: in vivo, Sprague Dawley (SD) rats; conditions: for half-life / Tmax / AUC(0-inf) / AUC(0-t) / Cmax / MRT last / MRT inf: male, rat, plasma; for Tmax: po; for MRT last: read-out: MRT(0-t); for MRT inf: read-out: MRT(0-∞)
Text: According to the established method for the analysis of serum biological samples, the pharmacokinetics of various components of rat serum were investigated after the administration of different dosages of JYPs to control rats.
as §1, §2, §3, §4
Chromatographic conditions: Hypersil GOLD (100 × 2.1 mm, 1.9 μm) column; column temperature 35 °C; mobile phase acetonitrile (A)/0.1% formic acid aqueous solution (B); gradient elution; gradient elution program: 0–0.5 min (95% B–95% B), 0.5–8 min (95% B–50% B), 8–14 min (50% B–20% B), 14–20 min (20% B–5% B), 20–22 min (5% B–5% B), 22–25 min (95% B–95% B); flow rate 0.2 mL/min; injection volume 5 μL.

[3] = Sprague Dawley, oral JYPs, range over compounds and doses, read-out: half-life (t1/2)
[4] = Sprague Dawley, oral JYPs, read-out: peak time (Tmax)
[5] = Sprague-Dawley, 1.08 g/kg/day, oral JYPs low dose 1.080 g/kg/d (1st of 3 values)
[6] = Sprague-Dawley, 2.16 g/kg/day, oral JYPs medium dose 2.160 g/kg/d (2nd of 3 values)
[7] = Sprague-Dawley, 4.32 g/kg/day, oral JYPs high dose 4.320 g/kg/d (3rd of 3 values)
[8] = oral JYPs high dose 4.320 g/kg/d (3rd of 3 values)
[9] = oral JYPs low dose 1.080 g/kg/d (1st of 3 values)
[10] = oral JYPs medium dose 2.160 g/kg/d (2nd of 3 values)

- peak time [1]: less than 1 h
- removed within 12 h [1]: approximately 80%
- Tmax, model rats compared with control rats ([1]; high-dose group): significantly shorter
- Cmax, model rats compared with control rats ([1]; middle- and high-dose administration groups): significantly greater
SMILES: CC12CC(O)C3CC1(OC1OC(CO)C(O)C(O)C1O)C3(COC(=O)c1ccccc1)C(=O)O2 (stereo not shown) [Albiflorin]

- half-life [2, 3]: 572 to 1010 min
- Tmax [2, 4]: < 1 h
SMILES: COc1cc(/C=C/C(=O)O)ccc1O [Ferulic acid]

- half-life [2, 3]: 862 to 1440 min
- Tmax [2, 4]: < 2 h
- AUC(0-inf) [2, 5]: 25.2 ± 7.16 ng·h/mL
- AUC(0-t) [2, 5]: 12.9 ± 4.96 ng·h/mL
- Cmax [2, 5]: 1.79 ± 0.66 ng/mL
- MRT last [2, 5]: 9.51 ± 1.01 h
- MRT inf [2, 5]: 22.9 ± 7.04 h
- half-life ([2]; Sprague-Dawley, 1.08 g/kg/day, oral JYPs low dose 1.080 g/kg/d (1st of 3 values), read-out: t1/2 (converted)): 862 ± 262 min
- AUC(0-inf) [2, 6]: 34.2 ± 5.08 ng·h/mL
- AUC(0-t) [2, 6]: 21.5 ± 2.97 ng·h/mL
- Cmax [2, 6]: 2.86 ± 0.52 ng/mL
- MRT last [2, 6]: 9.23 ± 0.46 h
- MRT inf [2, 6]: 24.1 ± 8.96 h
- half-life ([2]; Sprague-Dawley, 2.16 g/kg/day, oral JYPs medium dose 2.160 g/kg/d (2nd of 3 values), read-out: t1/2 (converted)): 987 ± 438 min
- AUC(0-inf) [2, 7]: 59.8 ± 23.1 ng·h/mL
- AUC(0-t) [2, 7]: 36.7 ± 11.3 ng·h/mL
- Cmax [2, 7]: 4.6 ± 2.01 ng/mL
- MRT last [2, 7]: 8.92 ± 1.16 h
- MRT inf [2, 7]: 31.2 ± 38.1 h
- half-life ([2]; Sprague-Dawley, 4.32 g/kg/day, oral JYPs high dose 4.320 g/kg/d (3rd of 3 values), read-out: t1/2 (converted)): 1330 ± 1610 min
- Tmax ([2]; Sprague-Dawley, 1.08 g/kg/day, oral JYPs low dose 1.080 g/kg/d (1st of 3 values), read-out: Tmax): 1.17 ± 0.41 h
- Tmax ([2]; Sprague-Dawley, 2.16 g/kg/day, oral JYPs medium dose 2.160 g/kg/d (2nd of 3 values), read-out: Tmax): 0.92 ± 0.13 h
- Tmax ([2]; Sprague-Dawley, 4.32 g/kg/day, oral JYPs high dose 4.320 g/kg/d (3rd of 3 values), read-out: Tmax): 1.67 ± 0.52 h
- AUMC(0-t) [2, 8]: 323.93± 97.01 ng/mL*(h)²
- AUMC(0-ꝏ) [2, 8]: 2493.49± 4004.18 ng/mL*(h)²
- Clearances [2, 8]: 1455.57 ± 663.81 mL/h
- Vss [2, 8]: 33463.62 ± 24837.03 mL
- AUMC(0-t) [2, 9]: 150.01± 45.26 ng/mL*(h)²
- AUMC(0-ꝏ) [2, 9]: 584.44± 254.39 ng/mL*(h)²
- Clearances [2, 9]: 794.02 ± 199.77 mL/h
- Vss [2, 9]: 17878.07 ± 6212.70 mL
- AUMC(0-t) [2, 10]: 197.79±26.58 ng/mL*(h)²
- AUMC(0-ꝏ) [2, 10]: 849.62± 407.65 ng/mL*(h)²
- Clearances [2, 10]: 1123.37 ± 161.30 mL/h
- Vss [2, 10]: 26341.48 ± 7666.95 mL
SMILES: CCCC=C1OC(=O)C2=C1CCC1C3C=C4C(=O)OC(=CCCC)C4(CC3)C21 (stereo not shown) [Levistilide A]

- peak time [1]: less than 1 h
- AUC(0-t), ADHD rats compared with control rats ([1]; all dosages): significantly lower
- half-life [2, 3]: 572 to 1010 min
- Tmax [2, 4]: < 1 h
SMILES: O=C1C[C@@H](c2ccc(O)cc2)Oc2cc(O)ccc21 [Liquiritigenin]

- peak time [1]: less than 1 h
- half-life [2, 3]: 572 to 1010 min
- Tmax [2, 4]: < 1 h
SMILES: O=C1C[C@@H](c2ccc(O[C@@H]3O[C@H](CO)[C@@H](O)[C@H](O)[C@H]3O)cc2)Oc2cc(O)ccc21 [Liquiritin]

- peak time [1]: less than 1 h
- removed within 12 h [1]: approximately 80%
- Tmax [2, 4]: < 1 h
SMILES: C[C@@]12C[C@@]3(O)O[C@@H](O1)[C@]1(COC(=O)c4ccccc4)[C@H]3C[C@@]12O[C@@H]1O[C@H](CO)[C@@H](O)[C@H](O)[C@H]1O [Paeoniflorin]

- peak time [1]: less than 4 h
- half-life ([1]; rat): < 619 min
- Cmax, ADHD rats compared with control rats ([1]; rat, in vivo): significantly higher
- half-life [2, 3]: 457 to 734 min
- Tmax [2, 4]: < 4 h
SMILES: C=C(CC[C@@H](C(=O)O)[C@H]1[C@H](O)C[C@@]2(C)C3=CC[C@@H](C(=C)C)[C@](C)(CCC(=O)O)C3=CC[C@]12C)C(C)C [Poricoic acid A]

- peak time [1]: less than 4 h
- half-life ([1]; rat): < 619 min
- t1/2, pathological condition compared with control rats ([1]; rat, in vivo): shorter
- half-life [2, 3]: 457 to 734 min
- Tmax [2, 4]: < 4 h
SMILES: C=C(C)[C@@H]1CC=C2C(=CC[C@]3(C)[C@@H]([C@@H](CCC=C(C)C)C(=O)O)[C@H](O)C[C@@]23C)[C@@]1(C)CCC(=O)O [Poricoic acid B]
